Measured values as given in patent publication US11090247B2, “Compositions for protecting the skin from heavy metals and formaldehyde” (FNG RESEARCH CO., LTD., priority 2016, dated 2021).

How the values were obtained:
human skin = assay: Skin irritation test of active ingredient (patch method, CTFA guidelines); type: in vivo; parameters: key to Degree of irritation: 0–0.1 none, 0.11–0.3 weak, 0.31–0.5 moderate, ≥0.51 strong irritation; conditions: 20 people, patch 24 hours; for Test result(number of subject) (+): (+): Apparent reddening than periphery; for Test result(number of subject) (++): (++): More reddened and swollen than periphery; for Test result(number of subject) (±): (±): slightly reddish than the periphery; for Test result(number of subject) (−): (−): No erythema or particularly no symptoms
Description: A total of 20 people (10 men and 10 women in their 20 s and 30 s) were tested for skin irritation using the patch method according to the guidelines of CTFA (The Cosmetic, Toiletry & Fragrance Association, Inc. Washington, D.C.).
A filter paper disk was placed in an 8 mm diameter, 10 panels of pin chamber.
After 24 hours, the pin chamber was removed, and skin conditions were visually observed.
[Criteria for Skin Irritation]
(−): No erythema or particularly no symptoms; (±): slightly reddish than the periphery; (+): Apparent reddening than periphery; (++): More reddened and swollen than periphery.
[Grade for Skin Irritation]
Degree of irritation 0-0.1: Grade I (unstimulated);
Degree of irritation 0.11-0.3: Grade II (weakly stimulated);
Degree of irritation 0.31-0.5: Grade III (moderately stimulated);
Degree of irritation 0.51 or more: Grade IV (strongly stimulated)

[1] = Removal test of heavy metals of active ingredients (pig skin, ICP-MS): Cd; conditions: contaminated pig skin
Description: (§1) (1) Preparation of Heavy Metal Contamination Sources and Pig Skin Samples
(§2) A pig was slaughtered, flayed and the bristle was shaved. The pig skin was cut to prepare 5*5 cm size of skin samples respectively.
(§3) The said skin samples were cleanly wiped with wet gauze, and then, added to 50 ml of methanol and extracted by shaking with ultrasonic for 60 min. 50 ml of methanol was further added and mixed. The pig skin samples were removed from the extracted solutions to prepare the test solutions.
(§4) The test solutions were analyzed for heavy metal components using an inductively coupled plasma mass spectrometer (ICP-MS, Xseries™ 2, Thermo Fisher Scientific, UK).

[2] = Formaldehyde removing ability test (GC); conditions: 2.0% formaldehyde solution; for Area (mAU*min) 30 min: formaldehyde GC area after 30 min; for Area (mAU*min) 30 min / Area (mAU*min) 180 min: 3 molar equivalents, room temperature; for Area (mAU*min) 180 min: formaldehyde GC area after 180 min; for Area (mAU*min) Initial: formaldehyde GC area, initial state, 3 molar equivalents of compound
[3] = Removal test of heavy metals of active ingredients (pig skin, ICP-MS): Pb; conditions: contaminated pig skin
Description: as §1, §2, §3, §4

[4] = Removal test of heavy metals of active ingredients (pig skin, ICP-MS): Cu; conditions: contaminated pig skin
Description: as §1, §2, §3, §4

Structure (SMILES)	Degree of irritation (human skin; 0.1 wt %)	Grade (human skin; 0.1 wt %)	Test result(number of subject) (+) (human skin; 0.1 wt %)	Test result(number of subject) (++) (human skin; 0.1 wt %)	Test result(number of subject) (±) (human skin; 0.1 wt %)	Test result(number of subject) (−) (human skin; 0.1 wt %)	Degree of irritation (human skin; 0.5 wt %)	Grade (human skin; 0.5 wt %)	Test result(number of subject) (+) (human skin; 0.5 wt %)	Test result(number of subject) (++) (human skin; 0.5 wt %)	Test result(number of subject) (±) (human skin; 0.5 wt %)	Test result(number of subject) (−) (human skin; 0.5 wt %)	Degree of irritation (human skin; 1.0 wt %)	Grade (human skin; 1.0 wt %)	Test result(number of subject) (+) (human skin; 1.0 wt %)	Test result(number of subject) (++) (human skin; 1.0 wt %)	Test result(number of subject) (±) (human skin; 1.0 wt %)	Test result(number of subject) (−) (human skin; 1.0 wt %)	Removal of Heavy metals Cd (%) ([1]; 0.1 wt % aqueous solution)	Removal of Heavy metals Cd (%) ([1]; 0.5 wt % aqueous solution)	also measured
O=C(O)c1ccc(N2CCN(c3ccc(C(=O)O)cc3)CCN(c3ccc(C(=O)O)cc3)CCN(c3ccc(C(=O)O)cc3)CC2)cc1 [Embodiment 6, 4,4′,4″,4′″-(1,4,7,10-tetraazacyclododecane-1,4,7,10-tetrayl)tetrabenzoic acid]	0	I (Degree of irritation 0-0.1: Grade I (unstimulated))	0	0	0	20	0	I (Degree of irritation 0-0.1: Grade I (unstimulated))	0	0	0	20	0.05	I (Degree of irritation 0-0.1: Grade I (unstimulated))	0	0	1	19	89.2	90.9	Removal of Heavy metals Cd (%) ([1]; 1.0 wt % aqueous solution): 91.6%; Area (mAU*min) 30 min [2]: 0.183 mAU*min; Area (mAU*min) 180 min [2]: 0 mAU*min; Area (mAU*min) Initial [2]: 0.305 mAU*min; Removal of Heavy metals Pb (%) ([3]; 0.1 wt % aqueous solution): 90.2%; Removal of Heavy metals Pb (%) ([3]; 0.5 wt % aqueous solution): 92.8%; Removal of Heavy metals Pb (%) ([3]; 1.0 wt % aqueous solution): 93.2%; Removal of Heavy metals Cu (%) ([4]; 0.1 wt % aqueous solution): 94.1%; Removal of Heavy metals Cu (%) ([4]; 0.5 wt % aqueous solution): 96.3%; Removal of Heavy metals Cu (%) ([4]; 1.0 wt % aqueous solution): 97.0%
O=C(O)c1ccc(N2CCCN(c3ccc(C(=O)O)o3)CCN(c3ccc(C(=O)O)o3)CCCN(c3ccc(C(=O)O)o3)CC2)o1 [Embodiment 12, 5,5′,5″,5′″-(1,4,8,11-tetraazacyclotetradecane-1,4,8,11-tetrayl)tetrakis(furan-2-carboxylic acid)]	0	I (Degree of irritation 0-0.1: Grade I (unstimulated))	0	0	0	20	0	I (Degree of irritation 0-0.1: Grade I (unstimulated))	0	0	0	20	0.05	I (Degree of irritation 0-0.1: Grade I (unstimulated))	0	0	1	19	90.1	90.7	Removal of Heavy metals Cd (%) ([1]; 1.0 wt % aqueous solution): 90.9%; Area (mAU*min) 30 min [2]: 0.170 mAU*min; Area (mAU*min) 180 min [2]: 0 mAU*min; Area (mAU*min) Initial [2]: 0.305 mAU*min; Removal of Heavy metals Pb (%) ([3]; 0.1 wt % aqueous solution): 89.1%; Removal of Heavy metals Pb (%) ([3]; 0.5 wt % aqueous solution): 90.9%; Removal of Heavy metals Pb (%) ([3]; 1.0 wt % aqueous solution): 91.3%; Removal of Heavy metals Cu (%) ([4]; 0.1 wt % aqueous solution): 94.5%; Removal of Heavy metals Cu (%) ([4]; 0.5 wt % aqueous solution): 95.8%; Removal of Heavy metals Cu (%) ([4]; 1.0 wt % aqueous solution): 96.3%
O=C(O)c1cncc(N2CCCN(c3cncc(C(=O)O)c3)CCN(c3cncc(C(=O)O)c3)CCCN(c3cncc(C(=O)O)c3)CC2)c1 [Embodiment 11, 5,5′,5″,5′″-(1,4,8,11-tetraazacyclotetradecane-1,4,8,11-tetrayl)tetranicotinic acid]	0	I (Degree of irritation 0-0.1: Grade I (unstimulated))	0	0	0	20	0	I (Degree of irritation 0-0.1: Grade I (unstimulated))	0	0	0	20	0.10	I (Degree of irritation 0-0.1: Grade I (unstimulated))	0	0	2	18	86.7	88.9	Removal of Heavy metals Cd (%) ([1]; 1.0 wt % aqueous solution): 91.0%; Area (mAU*min) 30 min [2]: 0.174 mAU*min; Area (mAU*min) 180 min [2]: 0 mAU*min; Area (mAU*min) Initial [2]: 0.305 mAU*min; Removal of Heavy metals Pb (%) ([3]; 0.1 wt % aqueous solution): 87.9%; Removal of Heavy metals Pb (%) ([3]; 0.5 wt % aqueous solution): 89.2%; Removal of Heavy metals Pb (%) ([3]; 1.0 wt % aqueous solution): 91.2%; Removal of Heavy metals Cu (%) ([4]; 0.1 wt % aqueous solution): 93.8%; Removal of Heavy metals Cu (%) ([4]; 0.5 wt % aqueous solution): 96.0%; Removal of Heavy metals Cu (%) ([4]; 1.0 wt % aqueous solution): 96.8%
O=C(O)c1ccc(N2CCN(c3ccc(C(=O)O)o3)CCN(c3ccc(C(=O)O)o3)CCN(c3ccc(C(=O)O)o3)CC2)o1 [Embodiment 8, 5,5′,5″,5′″-(1,4,7,10-tetraazacyclododecane-1,4,7,10-tetrayl)tetrakis(furan-2-carboxylic acid)]	0	I (Degree of irritation 0-0.1: Grade I (unstimulated))	0	0	0	20	0	I (Degree of irritation 0-0.1: Grade I (unstimulated))	0	0	0	20	0.10	I (Degree of irritation 0-0.1: Grade I (unstimulated))	0	0	2	18	90.4	91.3	Removal of Heavy metals Cd (%) ([1]; 1.0 wt % aqueous solution): 93.4%; Area (mAU*min) 30 min [2]: 0.168 mAU*min; Area (mAU*min) 180 min [2]: 0 mAU*min; Area (mAU*min) Initial [2]: 0.305 mAU*min; Removal of Heavy metals Pb (%) ([3]; 0.1 wt % aqueous solution): 91.4%; Removal of Heavy metals Pb (%) ([3]; 0.5 wt % aqueous solution): 93.4%; Removal of Heavy metals Pb (%) ([3]; 1.0 wt % aqueous solution): 94.0%; Removal of Heavy metals Cu (%) ([4]; 0.1 wt % aqueous solution): 94.3%; Removal of Heavy metals Cu (%) ([4]; 0.5 wt % aqueous solution): 96.8%; Removal of Heavy metals Cu (%) ([4]; 1.0 wt % aqueous solution): 97.2%
